One molecule from patent US20080171720A1, “Nutritional Supplement For Hiv Patients” (N.V. Nutricia, priority 2005, published 2008) can be followed below.

This assay relates to intestinal tight junction permeability. Nature of the assay: Inflammatory mediated intestinal tight junction permeability. Conditions: no method or data given.

Consider `CCCCC/C=C\C/C=C\C/C=C\CCCCC(=O)O` [GLA, gamma linolenic acid], for which the “reduction of inflammatory mediated intestinal tight junction permeability” value is listed as “effectively reduce inflammatory mediated intestinal tight junction permeability”.
